PubChem BioAssay (NCI)
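A five-concentration, 48-hour dose response in 96-well plates underlies each endpoint, interpolated linearly between surrounding concentrations. TGI marks complete inhibition of growth.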

How the values were obtained:
Test in all cases: NCI anticancer screen, dose series, 48 h
HS 578T breast = test system: HS 578T breast
HL-60(TB) leukemia = test system: HL-60(TB) leukemia
T-47D breast = test system: T-47D breast
MDA-N = test system: MDA-N
RPMI-8226 leukemia = test system: RPMI-8226 leukemia
HOP-62 NSCLC = test system: HOP-62 NSCLC
ACHN renal = test system: ACHN renal
HCT-15 colon = test system: HCT-15 colon
786-0 renal = test system: 786-0 renal
SF-539 CNS = test system: SF-539 CNS
MDA-MB-435 = test system: MDA-MB-435

| Compound | TGI (HS 578T breast) | TGI (HL-60(TB) leukemia) | TGI (T-47D breast) | TGI (MDA-N) | TGI (RPMI-8226 leukemia) | TGI (HOP-62 NSCLC) | TGI (ACHN renal) | TGI (HCT-15 colon) | TGI (786-0 renal) | TGI (SF-539 CNS) | TGI (MDA-MB-435) |
| --- | --- | --- | --- | --- | --- | --- | --- | --- | --- | --- | --- |
| OCc1ccc2c(c1)CC1(Cc3ccccc3C1)C2 | 32.9 µM | 67.4 µM | > 100 µM | 20 µM | 46.4 µM | > 100 µM | 57.7 µM | > 100 µM | 29.6 µM | 44.3 µM | – |
| CCOP(=O)(OCC)C(Nc1ccc(Cl)cc1)c1ccc(F)cc1 (stereo not given) | 54.4 µM | 54.1 µM | 40.8 µM | 43.1 µM | 67.6 µM | 48.2 µM | 97.2 µM | > 100 µM | 43.4 µM | 49 µM | 39.7 µM |
| Cc1cn(C2CC(O)C(Cn3nncc3Cn3nc(Br)c(=O)[nH]c3=O)O2)c(=O)[nH]c1=O (stereo not given) | > 100 µM | – | > 100 µM | > 100 µM | > 100 µM | > 100 µM | > 100 µM | > 100 µM | > 100 µM | > 100 µM | > 100 µM |
| CCOc1ccc2c(c1)C(/C(C(Cl)=C(Cl)Cl)=[N+](/[O-])OC(=O)c1ccccc1)=N2 | > 100 µM | > 100 µM | > 100 µM | > 100 µM | – | > 100 µM | > 100 µM | > 100 µM | > 100 µM | > 100 µM | > 100 µM |
| O=S(=O)(O)c1ccc(O)c(N=Nc2c(O)ccc3ccccc23)c1 | > 100 µM | – | > 100 µM | > 100 µM | > 100 µM | > 100 µM | – | > 100 µM | > 100 µM | – | > 100 µM |
| O=C1C(c2ccccc2)=C(c2ccccc2)C1(Cl)Cl | > 28.8 µM | 2.17 µM | 10.6 µM | 4.51 µM | 5.53 µM | 41.9 µM | 7.09 µM | 4.51 µM | 7.36 µM | 9.22 µM | 6.7 µM |
| Cc1cc(N(CCC#N)CCC#N)ccc1/C(N=Nc1ccc(C(=O)O)cc1)=N\NC(=O)c1ccccc1 | 55.5 µM | – | > 100 µM | > 100 µM | > 100 µM | > 100 µM | > 100 µM | > 100 µM | > 100 µM | 57 µM | > 100 µM |
| O=c1oc2ccccc2c(O)c1C(c1ccc(OCc2ccccc2)cc1)c1c(O)c2ccccc2oc1=O | > 100 µM | 65.9 µM | > 100 µM | 59.4 µM | > 100 µM | > 100 µM | 47.9 µM | > 100 µM | > 100 µM | > 100 µM | > 100 µM |
| Cc1cnc2c(c1)C(=O)N(c1ccc(Oc3ccccc3)cc1)S2(=O)=O | > 100 µM | > 100 µM | > 100 µM | > 100 µM | > 100 µM | > 100 µM | > 100 µM | > 100 µM | > 100 µM | > 100 µM | > 100 µM |
| CCOP(=O)(OCC)/C(=C/n1c(=S)[nH]c2ccccc21)C(=O)OC | > 100 µM | > 100 µM | > 100 µM | > 100 µM | > 100 µM | > 100 µM | > 100 µM | > 52.2 µM | > 100 µM | > 100 µM | > 100 µM |
| N#Cc1c(/C=C/c2ccccc2)c2c([nH]c1=S)CCCCC2 | > 100 µM | > 100 µM | > 100 µM | > 100 µM | > 100 µM | > 100 µM | > 100 µM | > 100 µM | > 100 µM | > 100 µM | > 100 µM |
| CCC[N+](C)(C)CCCNC(=O)c1c(O)c2ccccc2[nH]c1=O | > 100 µM | > 100 µM | > 100 µM | > 100 µM | > 100 µM | > 100 µM | > 100 µM | > 100 µM | > 100 µM | > 100 µM | > 100 µM |
| N=C1C=CC(=C(c2ccc(N)cc2)c2ccc(N)cc2)C=C1 | 8.18 µM | 36.1 µM | 8.74 µM | 30.3 µM | 18.4 µM | 16.8 µM | 31.2 µM | 53.3 µM | 12.9 µM | 13.1 µM | 19.7 µM |
| N#CCCN(CCCCN(CCC#N)C(=O)Nc1ccccc1)C(=O)Nc1ccccc1 | > 100 µM | > 100 µM | > 100 µM | > 100 µM | > 100 µM | > 100 µM | > 100 µM | > 100 µM | > 100 µM | – | > 100 µM |
| C[Si](C)(C)OC1(C#N)c2ccccc2CCCC12CCCC2 (stereo not given) | > 100 µM | 39.2 µM | 85.5 µM | > 100 µM | 51.5 µM | > 100 µM | > 100 µM | > 100 µM | > 100 µM | > 100 µM | > 100 µM |
| CC(=O)NC1C(OCc2ccccc2)OC(CO)C(O)C1OC(C)C(=O)NC(C(=O)NC(CCC(=O)NCCCNc1ccc([N+](=O)[O-])c2[nH]c3ccccc3c(=O)c12)C(N)=O)C(C)C (stereo not given) | > 100 µM | > 100 µM | > 100 µM | > 100 µM | – | > 100 µM | > 100 µM | > 100 µM | > 100 µM | > 100 µM | > 100 µM |
| OC(CCN1CCN(CCOC(c2ccccc2)c2ccccc2)CC1)c1ccccc1 (stereo not given) | 45 µM | 44.3 µM | 48.8 µM | 36.8 µM | – | 44.3 µM | > 100 µM | 37.1 µM | 33.8 µM | 36.8 µM | 38.3 µM |
| COC(=O)N[C@@H]1C[C@H]2CC[C@]1(O[Si](C(C)C)(C(C)C)C(C)C)C(=O)C2 | 31.5 µM | 78.7 µM | > 100 µM | 83.4 µM | 69.8 µM | 46.4 µM | 45.7 µM | 41.4 µM | 69 µM | – | 41.6 µM |
| CCOC(=O)c1sc2nc(SC)nc3c2c1NCN3C | 59.4 µM | – | 25.9 µM | > 100 µM | > 100 µM | 47.2 µM | 59.3 µM | > 100 µM | 47.3 µM | – | > 100 µM |
| CCN(CC)/N=C\c1c2ccccc2cc2ccccc12 | > 100 µM | > 100 µM | > 100 µM | > 100 µM | 77.1 µM | – | > 100 µM | > 100 µM | > 100 µM | > 100 µM | > 100 µM |
| [N-]=[N+]=Nc1cc(=O)[nH]c2ccccc12 | > 100 µM | – | > 100 µM | > 100 µM | > 100 µM | > 100 µM | > 100 µM | – | > 100 µM | > 100 µM | > 100 µM |
